Tests used:
Assay in all cases: relative viability (nuclei count vs DMSO), 5 days (fraction); higher = more cells survive
GW-2580 + Trametinib = compound: COC1=CC=C(C=C1)COC2=C(C=C(C=C2)CC3=CN=C(N=C3N)N)OC [GW-2580] + CC(=O)Nc1cccc(-n2c(=O)n(C3CC3)c(=O)c3c(Nc4ccc(I)cc4F)n(C)c(=O)c(C)c32)c1 [Trametinib] (partner 0.02 µM)
Summary of the method: (§1)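 For relative viability, nuclei counts in treated wells were divided by those in vehicle wells. Lung cancer cell lines had been pin-tool dosed in 1536-well plates the day after seeding and cultured for 5 days, then fixed and stained in one step (final 0.05% Triton X-100, 1% formaldehyde, 1 ug/ml Hoechst) and imaged at 4×. Doses were one drug alone or a fixed anchor-drug dose plus five library-drug doses (not always all listed) in √10 steps, and values are duplicate-plate medians.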

GW-2580 + Alpelisib = compound: COC1=CC=C(C=C1)COC2=C(C=C(C=C2)CC3=CN=C(N=C3N)N)OC [GW-2580] + Cc1nc(NC(=O)N2CCC[C@H]2C(N)=O)sc1-c1ccnc(C(C)(C)C(F)(F)F)c1 [Alpelisib] (partner 2 µM)
Summary of the method: as §1

GW-2580 + Dasatinib = compound: COC1=CC=C(C=C1)COC2=C(C=C(C=C2)CC3=CN=C(N=C3N)N)OC [GW-2580] + Cc1nc(Nc2ncc(C(=O)Nc3c(C)cccc3Cl)s2)cc(N2CCN(CCO)CC2)n1 [Dasatinib] (partner 0.075 µM)
Summary of the method: as §1

Fedratinib + Foretinib = compound: Cc1cnc(Nc2ccc(OCCN3CCCC3)cc2)nc1Nc1cccc(S(=O)(=O)NC(C)(C)C)c1 [Fedratinib] + COc1cc2c(Oc3ccc(NC(=O)C4(C(=O)Nc5ccc(F)cc5)CC4)cc3F)ccnc2cc1OCCCN1CCOCC1 [Foretinib] (partner 0.25 µM)
Summary of the method: as §1

Fedratinib + Phenformin = compound: Cc1cnc(Nc2ccc(OCCN3CCCC3)cc2)nc1Nc1cccc(S(=O)(=O)NC(C)(C)C)c1 [Fedratinib] + N=C(N)NC(=N)NCCc1ccccc1 [Phenformin] (partner 250 µM)
Summary of the method: as §1

| Cell Line | relative viability (GW-2580 + Trametinib; first compound 0.08 µM) | relative viability (GW-2580 + Trametinib; first compound 0.8 µM) | relative viability (GW-2580 + Trametinib; first compound 2.53 µM) | relative viability (GW-2580 + Trametinib; first compound 8 µM) | relative viability (GW-2580 + Alpelisib; first compound 0.08 µM) | relative viability (GW-2580 + Alpelisib; first compound 0.8 µM) | relative viability (GW-2580 + Alpelisib; first compound 2.53 µM) | relative viability (GW-2580 + Alpelisib; first compound 8 µM) | relative viability (GW-2580 + Dasatinib; first compound 0.08 µM) | relative viability (GW-2580 + Dasatinib; first compound 0.8 µM) | relative viability (GW-2580 + Dasatinib; first compound 2.53 µM) | relative viability (GW-2580 + Dasatinib; first compound 8 µM) | relative viability (Fedratinib + Foretinib; first compound 0.1 µM) | relative viability (Fedratinib + Foretinib; first compound 0.3162 µM) | relative viability (Fedratinib + Foretinib; first compound 1 µM) | relative viability (Fedratinib + Phenformin; first compound 0.1 µM) | relative viability (Fedratinib + Phenformin; first compound 0.3162 µM) | relative viability (Fedratinib + Phenformin; first compound 1 µM) |
| --- | --- | --- | --- | --- | --- | --- | --- | --- | --- | --- | --- | --- | --- | --- | --- | --- | --- | --- |
| RERF-LC-KJ | 0.821 | 0.953 | 0.769 | 0.82 | 0.771 | 0.803 | 0.732 | 0.793 | 0.896 | 0.893 | 0.797 | 0.71 | 0.883 | 0.904 | 0.864 | 0.384 | 0.433 | 0.373 |
| SK-LU-1 | 0.498 | 0.437 | 0.375 | 0.518 | 0.936 | 1.09 | 0.85 | 1.18 | 0.178 | 0.207 | 0.149 | 0.167 | 0.819 | 0.78 | 0.504 | 0.5 | 0.514 | 0.328 |
| SK-MES-1 | 0.585 | 0.491 | 0.522 | 0.503 | 1.15 | 0.907 | 0.94 | 0.885 | 0.444 | 0.477 | 0.304 | 0.292 | 0.865 | 1.07 | 0.795 | 0.511 | 0.644 | 0.532 |
| SW 1573 | 0.535 | 0.598 | 0.532 | 0.614 | 0.841 | 0.797 | 0.698 | 0.674 | 0.464 | 0.45 | 0.452 | 0.407 | 0.906 | 0.947 | 0.807 | 0.32 | 0.391 | 0.369 |

Source: the supplement of paper PMC10307832
